The record followed here is patent US20100144733A1, “Compounds, compositions and methods comprising heteroaromatic derivatives” (Institute for OneWorld Health, priority 2008, published 2010).

Assay [1] has as its system cholera toxin (CTX) induced net fluid secretion in intestinal loops. Put plainly: animal or person. In kind it is in vivo, mice (CD1 strain). Conditions: 4 hours.
The target in another assay is T1, CFTR (Homo sapiens, UniProt P13569).
T1 construct: endogenous in cells; host or cells: T84 human colonic cells (ECACC)
T1 sequence (P13569 whole entry): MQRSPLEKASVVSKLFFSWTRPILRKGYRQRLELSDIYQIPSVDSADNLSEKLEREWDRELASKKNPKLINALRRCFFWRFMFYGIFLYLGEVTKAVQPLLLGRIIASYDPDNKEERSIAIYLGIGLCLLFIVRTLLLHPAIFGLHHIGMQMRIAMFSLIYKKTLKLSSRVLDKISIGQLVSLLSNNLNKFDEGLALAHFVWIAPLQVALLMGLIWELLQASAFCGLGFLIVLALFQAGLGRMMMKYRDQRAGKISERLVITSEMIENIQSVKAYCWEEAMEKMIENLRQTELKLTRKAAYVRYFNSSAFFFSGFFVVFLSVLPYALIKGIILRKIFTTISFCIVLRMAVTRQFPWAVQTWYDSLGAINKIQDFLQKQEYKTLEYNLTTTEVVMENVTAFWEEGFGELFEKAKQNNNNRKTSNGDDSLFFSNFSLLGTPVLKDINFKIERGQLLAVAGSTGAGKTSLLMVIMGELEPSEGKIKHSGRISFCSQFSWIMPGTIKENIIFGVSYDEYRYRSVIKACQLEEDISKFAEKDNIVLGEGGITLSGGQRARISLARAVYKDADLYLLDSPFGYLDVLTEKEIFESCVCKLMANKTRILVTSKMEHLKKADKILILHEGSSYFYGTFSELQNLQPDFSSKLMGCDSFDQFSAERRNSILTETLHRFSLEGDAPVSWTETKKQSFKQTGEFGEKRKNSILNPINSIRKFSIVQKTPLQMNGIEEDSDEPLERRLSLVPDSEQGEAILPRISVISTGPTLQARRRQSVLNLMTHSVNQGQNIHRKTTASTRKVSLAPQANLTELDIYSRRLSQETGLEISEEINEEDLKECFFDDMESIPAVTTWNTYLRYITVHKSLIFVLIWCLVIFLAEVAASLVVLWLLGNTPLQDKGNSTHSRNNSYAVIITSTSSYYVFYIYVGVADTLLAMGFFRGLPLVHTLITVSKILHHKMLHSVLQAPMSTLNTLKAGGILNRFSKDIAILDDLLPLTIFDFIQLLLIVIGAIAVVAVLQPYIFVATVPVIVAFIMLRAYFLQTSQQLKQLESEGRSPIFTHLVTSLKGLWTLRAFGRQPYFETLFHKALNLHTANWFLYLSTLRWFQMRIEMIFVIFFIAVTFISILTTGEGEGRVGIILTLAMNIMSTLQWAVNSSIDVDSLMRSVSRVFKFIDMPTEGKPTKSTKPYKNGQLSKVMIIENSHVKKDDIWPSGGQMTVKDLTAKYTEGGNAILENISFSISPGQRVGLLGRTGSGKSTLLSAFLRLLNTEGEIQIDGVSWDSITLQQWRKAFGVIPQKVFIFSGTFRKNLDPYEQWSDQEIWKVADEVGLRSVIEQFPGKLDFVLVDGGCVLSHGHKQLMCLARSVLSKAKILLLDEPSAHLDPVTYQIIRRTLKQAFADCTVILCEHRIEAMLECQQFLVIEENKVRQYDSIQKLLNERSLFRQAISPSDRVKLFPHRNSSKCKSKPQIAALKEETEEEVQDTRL
Put plainly: T84 assay (FLIPR membrane potential dye, forskolin/IBMX-stimulated CFTR channel activity). Format: cell-based. Conditions: imidazole and triazole-containing compounds (Tables 13, 14, 14′), read-out: IC50 (μM) (T84 assay). The gist of the method: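 Fluorescence from a membrane potential dye in T84 monolayers (HBSS with 10 mM Hepes) is followed each second for 150 s. Cells are exposed to test compound during the 45 min dye loading, then challenged with forskolin (10 μM) and IBMX (100 μM) to open CFTR. Inhibitors suppress the depolarization-driven fluorescence increase.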

A further assay has as its target T2, CHO-CFTR cell line (Homo sapiens, UniProt P13569).
T2 construct: expressed in transfected cells; host or cells: CHO (CHO-CFTR cell line)
Put plainly: CHO-CFTR assay (FLIPR assay, same conditions as the T84 assay). In kind it is cell-based. Conditions: imidazole and triazole-containing compounds.

Usually IC50 stands for the concentration needed to halve the response being measured.

T2 sequence (P13569 whole entry): as above

As for `Oc1c(Br)cc(-c2cnc(OCCc3ccccc3)nn2)cc1Br` [96e, 2,6-dibromo-4-(3-phenethoxy-1,2,4-triazin-6-yl)phenol], the “closed loop % inhibition @ 100 μg” value in assay [1] came to 78.6%.
Regarding `CC(C)c1ccc(CN(Cc2cccnc2)C(=O)c2ncn(-c3cc(Cl)c(O)c(Cl)c3)n2)cc1` [92i, 1-(3,5-dichloro-4-hydroxyphenyl)-N-(4-isopropylbenzyl)-N-(pyridin-3-ylmethyl)-1H-1,2,4-triazole-3-carboxamide], the IC50 at CFTR was 1.47 µM; against CHO-CFTR cell line, 8.57 µM.
On the same counts, the results for `O=C(c1ncn(-c2cc(Cl)c(O)c(Cl)c2)n1)N(Cc1cccnc1)Cc1ccc(Cl)c(Cl)c1` [109i, 1-(3,5-dichloro-4-hydroxyphenyl)-N-(3,4-dichlorobenzyl)-N-(pyridin-3-ylmethyl)-1H-1,2,4-triazole-3-carboxamide] are 3.06 µM and 10.2 µM.
As to `CC(C)(C)CCN(Cc1ccc(C(C)(C)C)cc1)C(=O)c1ncn(-c2cc(Cl)c(O)c(Cl)c2)n1` [106i, N-(4-tert-butylbenzyl)-1-(3,5-dichloro-4-hydroxyphenyl)-N-(3,3-dimethylbutyl)-1H-1,2,4-triazole-3-carboxamide], the IC50 at CFTR stood at 1.8 µM; against CHO-CFTR cell line, 13.1 µM.
Turning to `O=C(c1cn(-c2cc(Br)c(O)c(Br)c2)cn1)N1CCC(Cc2ccccc2)CC1` [19i, (4-benzylpiperidin-1-yl)(1-(3,5-dibromo-4-hydroxyphenyl)-1H-imidazol-4-yl)methanone], the figures for the IC50 at CFTR and against CHO-CFTR cell line were 17.4 µM and 7.5 µM, respectively.
Take `CCN(Cc1cccc(C(F)(F)F)c1)C(=O)c1ncn(-c2cc(Cl)c(O)c(Cl)c2)n1` [90i, 1-(3,5-dichloro-4-hydroxyphenyl)-N-ethyl-N-(3-(trifluoromethyl)benzyl)-1H-1,2,4-triazole-3-carboxamide]: the results for the IC50 on CFTR and on CHO-CFTR cell line were 5.98 µM and 15.9 µM, respectively.
The corresponding values for `CC(C)N(Cc1ccc(Oc2ccccc2)cc1)C(=O)c1ncn(-c2cc(Cl)c(O)c(Cl)c2)n1` [95i, 1-(3,5-dichloro-4-hydroxyphenyl)-N-isopropyl-N-(4-phenoxybenzyl)-1H-1,2,4-triazole-3-carboxamide] are 2.63 µM and 18.9 µM.
Consider `O=C(c1ncn(-c2cc(Cl)c(O)c(Cl)c2)n1)N(Cc1cccnc1)Cc1cccc(OC(F)(F)F)c1` [110i, 1-(3,5-dichloro-4-hydroxyphenyl)-N-(pyridin-3-ylmethyl)-N-(3-(trifluoromethoxy)benzyl)-1H-1,2,4-triazole-3-carboxamide], for which the IC50 on CFTR amounted to 4.48 µM; against CHO-CFTR cell line, 7.8 µM.
With `O=C(NC(c1ccccc1)c1ccccc1)c1ncn(-c2cc(Cl)c(O)c(Cl)c2)n1` [2i, N-benzhydryl-1-(3,5-dichloro-4-hydroxyphenyl)-1H-1,2,4-triazole-3-carboxamide], the IC50 on CFTR came to 4.88 µM; at CHO-CFTR cell line, 6.45 µM.
Consider `O=C(NCc1cc(C(F)(F)F)ccc1F)c1ncn(-c2cc(Cl)c(O)c(Cl)c2)n1` [40i, 1-(3,5-dichloro-4-hydroxyphenyl)-N-(2-fluoro-5-(trifluoromethyl)benzyl)-1H-1,2,4-triazole-3-carboxamide], for which the IC50 on CFTR was found to be 2.86 µM; against CHO-CFTR cell line it was 28.6 µM.
`Oc1c(Cl)cc(-n2cnc(C(O)(c3cc(F)cc(Cl)c3)c3cc(F)cc(Cl)c3)n2)cc1Cl` [57i, 4-(3-(bis(3-chloro-5-fluorophenyl)(hydroxy)methyl)-1H-1,2,4-triazol-1-yl)-2,6-dichlorophenol]: the IC50 was 14.7 µM at CFTR and 3.88 µM against CHO-CFTR cell line.
As for `O=C(NCc1ccc(Oc2ccc(CO)cc2)cc1)c1ncn(-c2cc(Cl)c(O)c(Cl)c2)n1` [76i, 1-(3,5-dichloro-4-hydroxyphenyl)-N-(4-(4-(hydroxymethyl)phenoxy)benzyl)-1H-1,2,4-triazole-3-carboxamide], the IC50 at CFTR came out at 11.3 µM; on CHO-CFTR cell line, 12.2 µM.
`CON(Cc1ccc(Oc2ccccc2)cc1)C(=O)c1ncn(-c2cc(Cl)c(O)c(Cl)c2)n1` [129i, 1-(3,5-dichloro-4-hydroxyphenyl)-N-methoxy-N-(4-phenoxybenzyl)-1H-1,2,4-triazole-3-carboxamide]: the results for the IC50 at CFTR and against CHO-CFTR cell line were 2.61 µM and 22.5 µM, respectively.
As for `CON(Cc1cccc(C(F)(F)F)c1)C(=O)c1ncn(-c2cc(Cl)c(O)c(Cl)c2)n1` [124i, 1-(3,5-dichloro-4-hydroxyphenyl)-N-methoxy-N-(3-(trifluoromethyl)benzyl)-1H-1,2,4-triazole-3-carboxamide], the IC50 at CFTR was found to be 8.22 µM; against CHO-CFTR cell line, 6.03 µM.
In the case of `CC(C)N(Cc1ccc(Cl)c(Cl)c1)C(=O)c1ncn(-c2cc(Cl)c(O)c(Cl)c2)n1` [98i, 1-(3,5-dichloro-4-hydroxyphenyl)-N-(3,4-dichlorobenzyl)-N-isopropyl-1H-1,2,4-triazole-3-carboxamide], the IC50 at CFTR is 8.13 µM; against CHO-CFTR cell line, 8.39 µM.
The corresponding values for `CC(C)(C)CCN(Cc1ccc(Oc2ccccc2)cc1)C(=O)c1ncn(-c2cc(Cl)c(O)c(Cl)c2)n1` [105i, 1-(3,5-dichloro-4-hydroxyphenyl)-N-(3,3-dimethylbutyl)-N-(4-phenoxybenzyl)-1H-1,2,4-triazole-3-carboxamide] are 3.64 µM and 11.3 µM.
Take `C=CCN(Cc1ccc(Oc2ccccc2)cc1)C(=O)c1ncn(-c2cc(Cl)c(O)c(Cl)c2)n1` [100i, N-allyl-1-(3,5-dichloro-4-hydroxyphenyl)-N-(4-phenoxybenzyl)-1H-1,2,4-triazole-3-carboxamide]: the IC50 on CFTR was found to be 1.85 µM; against CHO-CFTR cell line it was 9.09 µM.
With `O=C(NCc1ccc(F)c(Cl)c1)c1ncn(-c2cc(Cl)c(O)c(Cl)c2)n1` [23i, N-(3-chloro-4-fluorobenzyl)-1-(3,5-dichloro-4-hydroxyphenyl)-1H-1,2,4-triazole-3-carboxamide], the IC50 at CFTR turned out to be 7.39 µM; against CHO-CFTR cell line, 12.5 µM.
In the case of `Oc1c(Cl)cc(-n2cnc(C(O)(c3cc(F)cc(F)c3)c3cc(F)cc(F)c3)n2)cc1Cl` [52i, 4-(3-(Bis(3,5-difluorophenyl)(hydroxy)methyl)-1H-1,2,4-triazol-1-yl)-2,6-dichlorophenol], the values for the IC50 at CFTR and against CHO-CFTR cell line were 13.6 µM and 7.8 µM, respectively.
Take `CC(C)(C)c1ccc(CN(Cc2cccnc2)C(=O)c2ncn(-c3cc(Cl)c(O)c(Cl)c3)n2)cc1` [93i, N-(4-tert-butylbenzyl)-1-(3,5-dichloro-4-hydroxyphenyl)-N-(pyridin-3-ylmethyl)-1H-1,2,4-triazole-3-carboxamide]: the IC50 at CFTR was 1.19 µM; on CHO-CFTR cell line, 4.67 µM.
On the same counts, the results for `O=C(NCc1ccc(Oc2cc(Cl)c(OCc3ccccc3)c(Cl)c2)cc1)c1ncn(-c2cc(Cl)c(O)c(Cl)c2)n1` [73i] are 30.7 µM and 17 µM.
Regarding `COCCOCCOCCN(Cc1ccc(Oc2ccccc2)cc1)C(=O)c1ncn(-c2cc(Cl)c(O)c(Cl)c2)n1` [119i, 1-(3,5-dichloro-4-hydroxyphenyl)-N-(2-(2-(2-methoxyethoxy)ethoxy)ethyl)-N-(4-phenoxybenzyl)-1H-1,2,4-triazole-3-carboxamide], the results for the IC50 on CFTR and on CHO-CFTR cell line were 5.11 µM and 11.5 µM, respectively.
With `O=C(c1ncn(-c2cc(Cl)c(O)c(Cl)c2)n1)N(Cc1ccc(Oc2ccccc2)cc1)Cc1cccnc1` [91i, 1-(3,5-dichloro-4-hydroxyphenyl)-N-(4-phenoxybenzyl)-N-(pyridin-3-ylmethyl)-1H-1,2,4-triazole-3-carboxamide], the IC50 came out at 2.89 µM at CFTR and 20.6 µM on CHO-CFTR cell line.
For the compound `CC(C)(C)C(=O)C(Cc1cccc(OC(F)(F)F)c1)NC(=O)c1ncn(-c2cc(Cl)c(O)c(Cl)c2)n1` (centres unmarked) [133i, 1-(3,5-dichloro-4-hydroxyphenyl)-N-(4,4-dimethyl-3-oxo-1-(3-(trifluoromethoxy)phenyl)pentan-2-yl)-1H-1,2,4-triazole-3-carboxamide], the IC50 is 1.23 µM at CFTR and 21 µM against CHO-CFTR cell line.
As to `Oc1c(Cl)cc(-n2cnc(C(O)(c3cccc(F)c3)c3cccc(F)c3)n2)cc1Cl` [54i, 4-(3-(bis(3-fluorophenyl)(hydroxy)methyl)-1H-1,2,4-triazol-1-yl)-2,6-dichlorophenol], the IC50 is 22.9 µM on CFTR and 22.7 µM at CHO-CFTR cell line.
Consider `O=C(NCC(c1ccccc1)c1ccccc1)c1ncn(-c2cc(Cl)c(O)c(Cl)c2)n1` [44i, 1-(3,5-dichloro-4-hydroxyphenyl)-N-(2,2-diphenylethyl)-1H-1,2,4-triazole-3-carboxamide], for which the figures for the IC50 on CFTR and on CHO-CFTR cell line were 2.8 µM and 23.2 µM, respectively.
Consider `CC(C)(C)CCN(Cc1ccccc1)C(=O)c1ncn(-c2cc(Cl)c(O)c(Cl)c2)n1` [60i, N-Benzyl-1-(3,5-dichloro-4-hydroxyphenyl)-N-(3,3-dimethylbutyl)-1H-1,2,4-triazole-3-carboxamide], for which the IC50 at CFTR came out at 16.2 µM; at CHO-CFTR cell line, 5.45 µM.
Take `CC(C)(C)C(=O)CN(Cc1ccc(C(C)(C)C)cc1)C(=O)c1ncn(-c2cc(Cl)c(O)c(Cl)c2)n1` [50i, N-(4-tert-butylbenzyl)-1-(3,5-dichloro-4-hydroxyphenyl)-N-(3,3-dimethyl-2-oxobutyl)-1H-1,2,4-triazole-3-carboxamide]: the values for the IC50 on CFTR and against CHO-CFTR cell line were 1.16 µM and 18.5 µM, respectively.
`O=C(NCc1cccc(OC(F)(F)F)c1)c1cn(-c2cc(Br)c(O)c(Br)c2)cn1` [20i, 1-(3,5-Dibromo-4-hydroxyphenyl)-N-(3-(trifluoromethoxy)benzyl)-1H-imidazole-4-carboxamide]: the IC50 on CFTR is 17.6 µM; at CHO-CFTR cell line, 2.31 µM.
Regarding `CC(C)(C)CCN(Cc1cccnc1)C(=O)c1ncn(-c2cc(Cl)c(O)c(Cl)c2)n1` [78i, 1-(3,5-dichloro-4-hydroxyphenyl)-N-(3,3-dimethylbutyl)-N-(pyridin-3-ylmethyl)-1H-1,2,4-triazole-3-carboxamide], the IC50 at CFTR turned out to be 11.4 µM; at CHO-CFTR cell line it was 13.7 µM.
